Laboratory results taken from ChEMBL document CHEMBL1142635, “Lupene-type triterpenes from Periploca aphylla” (J Nat Prod, 2000).
The source made the active and inactive calls. No cut-off for these calls is given here.

Legend:
[1] = Inhibition of alpha-glucosidase 4
Salmonella typhi = assay: Antibacterial activity against Salmonella typhi at 100 ug after 24 hrs by agar well diffusion method; type: functional, organism-based; conditions: Salmonella enterica subsp. enterica serovar Typhi
Escherichia coli = assay: Antibacterial activity against Escherichia coli at 100 ug after 24 hrs by agar well diffusion method; type: functional, organism-based
Streptococcus pyogenes = assay: Antibacterial activity against Streptococcus pyogenes at 100 ug after 24 hrs by agar well diffusion method; type: functional, organism-based
Bacillus cereus = assay: Antibacterial activity against Bacillus cereus at 100 ug after 24 hrs by agar well diffusion method; type: functional, organism-based
Staphylococcus aureus = assay: Antibacterial activity against […] at 100 ug after 24 hrs by agar well diffusion method; type: functional, organism-based
Proteus mirabilis = assay: Antibacterial activity against Proteus mirabilis at 100 ug after 24 hrs by agar well diffusion method; type: functional, organism-based

Structure (SMILES)	IC50 [1] [µM]	Activity (Salmonella typhi)	Activity (Escherichia coli)	Activity (Streptococcus pyogenes)	Activity (Bacillus cereus)	Activity (Staphylococcus aureus)	Activity (Proteus mirabilis)
C=C(C)[C@@H]1CC[C@]2(C)CC[C@]3(C)[C@H](CC[C@@H]4[C@@]5(C)CC[C@H](O)C(C)(C)[C@@H]5[C@@H](O)C[C@]43C)[C@@H]12	42.5						
C=C(C)[C@@H]1CC[C@]2(C)CC[C@]3(C)[C@H](CC[C@@H]4[C@@]5(C)CC[C@H](OC(=O)CCCCCCCCCCCCCCCCC)C(C)(C)[C@@H]5[C@@H](O)C[C@]43C)[C@@H]12		inactive	inactive	inactive	inactive	inactive	inactive
